Laboratory results taken from the NIST ThermoML archive (doi:10.1016/j.jct.2016.10.009).

Assay: xn = mol fraction of the nth substance listed
Conditions: Liquid, Vibrating tube method

CC(C)OC(C)C [diisopropyl ether] + CCC(C)O
mass density [kg/m3]
Conditions | x2 = 0 | x2 = 0.2036 | x2 = 0.3227 | x2 = 0.4464 | x2 = 0.4973 | x2 = 0.6595 | x2 = 0.8482
293.15 K, 100 kPa | 723.5 | 737.9 | 746.6 | 756.1 | – | 774.1 | 791.8
293.15 K, 1000 kPa | 724.6 | 739 | 747.6 | 757 | 761.1 | 774.9 | 792.6
293.15 K, 5000 kPa | 729.4 | 743.4 | 751.8 | 761.1 | 765 | 778.5 | 795.9
293.15 K, 10000 kPa | 734.9 | 748.6 | 756.8 | 765.7 | 769.6 | 782.9 | 799.8
293.15 K, 15000 kPa | 740 | 753.3 | 761.4 | 770.2 | 774 | 786.9 | 803.5
293.15 K, 20000 kPa | 744.8 | 757.9 | 765.7 | 774.3 | 778.1 | 790.8 | 807.1
293.15 K, 25000 kPa | 749.4 | 762.2 | 769.9 | 778.3 | 782 | 794.5 | 810.4
293.15 K, 30000 kPa | 753.7 | 766.2 | 773.8 | 782.2 | 785.7 | 798 | 813.7
293.15 K, 35000 kPa | 757.7 | 770.1 | 777.6 | 785.7 | 789.3 | 801.3 | 816.8
293.15 K, 40000 kPa | 761.6 | 773.8 | 781.1 | 789.2 | 792.7 | 804.5 | 819.8
293.15 K, 45000 kPa | 765.3 | 777.3 | 784.6 | 792.5 | 796 | 807.7 | 822.7
293.15 K, 50000 kPa | 768.9 | 780.7 | 787.9 | 795.7 | 799.1 | 810.7 | 825.5
293.15 K, 55000 kPa | 772.4 | 784 | 791.1 | 798.8 | 802.2 | 813.6 | 828.3
293.15 K, 60000 kPa | 775.7 | 787.1 | 794.2 | 801.8 | 805.2 | 816.4 | 830.9
293.15 K, 65000 kPa | 778.9 | 790.3 | 797.2 | 804.8 | 808.1 | 819.2 | 833.5
293.15 K, 70000 kPa | 782 | 793.2 | 800.1 | 807.5 | 810.8 | 821.8 | 836
293.15 K, 80000 kPa | 787.9 | 798.9 | 805.6 | 812.9 | 816.2 | 826.9 | 840.8
293.15 K, 90000 kPa | 793.5 | 804.4 | 810.9 | 818.1 | 821.3 | 831.9 | 845.5
293.15 K, 100000 kPa | 798.8 | 809.3 | 815.9 | 822.9 | 826 | 836.4 | 849.8
293.15 K, 110000 kPa | 803.9 | 814.2 | 820.7 | 827.6 | 830.7 | 840.9 | 854.1
293.15 K, 120000 kPa | 808.7 | 818.9 | 825.2 | 832.1 | 835.1 | 845.2 | 858.2
293.15 K, 130000 kPa | 813.2 | 823.4 | 829.6 | 836.4 | 839.3 | 849.3 | 862.1
293.15 K, 140000 kPa | 817.6 | 827.6 | 833.7 | 840.4 | 843.3 | 853.2 | 865.8
298.15 K, 100 kPa | 718.3 | 732.9 | 741.7 | 751.2 | 755.4 | 769.4 | 787.5
298.15 K, 1000 kPa | 719.6 | 734 | 742.8 | 752.2 | 756.4 | 770.3 | 788.3
298.15 K, 5000 kPa | 724.5 | 738.6 | 747.1 | 756.3 | 760.5 | 774.1 | 791.7
298.15 K, 10000 kPa | 730.2 | 743.9 | 752.2 | 761.2 | 765.2 | 778.5 | 795.7
298.15 K, 15000 kPa | 735.6 | 748.8 | 757 | 765.8 | 769.7 | 782.8 | 799.6
298.15 K, 20000 kPa | 740.5 | 753.5 | 761.5 | 770.1 | 773.9 | 786.7 | 803.2
298.15 K, 25000 kPa | 745.2 | 757.9 | 765.7 | 774.2 | 777.9 | 790.5 | 806.6
298.15 K, 30000 kPa | 749.6 | 762.1 | 769.8 | 778.1 | 781.8 | 794.1 | 810
298.15 K, 35000 kPa | 753.7 | 766 | 773.6 | 781.7 | 785.4 | 797.5 | 813.1
298.15 K, 40000 kPa | 757.8 | 769.8 | 777.3 | 785.3 | 788.9 | 800.8 | 816.2
298.15 K, 45000 kPa | 761.6 | 773.4 | 780.8 | 788.7 | 792.2 | 804.1 | 819.2
298.15 K, 50000 kPa | 765.2 | 776.9 | 784.2 | 792 | 795.5 | 807.1 | 822.1
298.15 K, 55000 kPa | 768.8 | 780.3 | 787.5 | 795.2 | 798.6 | 810.1 | 824.9
298.15 K, 60000 kPa | 772.2 | 783.5 | 790.6 | 798.2 | 801.6 | 812.9 | 827.6
298.15 K, 65000 kPa | 775.4 | 786.6 | 793.7 | 801.2 | 804.5 | 815.7 | 830.2
298.15 K, 70000 kPa | 778.6 | 789.7 | 796.6 | 804.1 | 807.4 | 818.5 | 832.8
298.15 K, 80000 kPa | 784.6 | 795.5 | 802.3 | 809.6 | 812.8 | – | –
